Assay results from PubChem BioAssay (NCI).
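Growth conditions: 96-well plates. Treatment: test compound, 48 hours, 5 concentrations. Analysis: linear interpolation between bracketing concentrations; unreached endpoints set to highest concentration. GI50 is the concentration that inhibits growth by half. The concentration for full growth arrest is given as TGI.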

How the values were obtained:
Assay in all cases: DTP human tumour cell line panel, 48 h
[1] = tested on: CAKI-1 renal
[2] = tested on: EKVX NSCLC
[3] = tested on: HL-60(TB) leukemia
[4] = tested on: IGROV1 ovarian
[5] = tested on: NCI-H23 lung
[6] = tested on: OVCAR-5 ovarian
[7] = tested on: SK-MEL-28 melanoma
[8] = tested on: SK-MEL-5 melanoma
[9] = tested on: SW-620 colon
[10] = tested on: SR leukemia

Row | SMILES | TGI [1] [µM] | TGI [2] [µM] | TGI [3] [µM] | TGI [4] [µM] | TGI [5] [µM] | TGI [6] [µM] | TGI [7] [µM] | TGI [8] [µM] | TGI [9] [µM] | GI50 [2] [µM] | GI50 [4] [µM] | GI50 [5] [µM] | GI50 [7] [µM] | GI50 [9] [µM] | GI50 [1] [µM] | GI50 [3] [µM] | GI50 [6] [µM] | GI50 [8] [µM] | GI50 [10] [µM] | TGI [10] [µM]
1 | CC1=C(C(=O)Nc2ccc(Cl)c(C(=O)OC(C)C)c2)SCCO1 | > 100 | > 95.5 | 51 | > 81.1 | 96.3 | 75.3 | 99.5 | 81.4 | > 79.4 | – | – | – | – | – | – | – | – | – | – | –
2 | CC(=O)C1=C(O)C2C3c4c[nH]c5cccc(c45)CC3C(C)(C)N2C1=O (centres undefined) | > 100 | > 100 | 9.85 | > 100 | 64.3 | > 100 | > 100 | 27.2 | > 100 | – | – | – | – | – | – | – | – | – | – | –
3 | COc1ccc(/C=C/C(=O)c2sc(-n3nc(-c4ccccc4)cc3-c3ccccc3)nc2C)cc1 | > 100 | > 100 | – | > 100 | > 100 | – | > 100 | > 100 | > 100 | 51.1 | > 100 | > 100 | > 100 | > 100 | – | – | – | – | – | –
4 | CC(=O)c1c(C)[nH]c(-c2nc3ccc(N4CCN(C)CC4)cc3[nH]2)c1-c1ccccc1 | 12.8 | > 100 | 12.7 | 14.4 | 39.3 | 22.9 | 19.9 | 10.4 | 24.8 | 2.03 | 1.12 | 3.02 | 3.38 | 3.82 | 0.212 | 0.261 | 1.12 | 1.35 | – | –
5 | COc1cc(CCc2ccc(N)cc2)cc(OC)c1OC | > 100 | > 100 | > 92.5 | > 100 | > 100 | > 100 | 92.8 | > 89.6 | > 100 | – | – | – | – | – | – | – | – | – | – | –
6 | Cc1cc(Cl)nc(N(CCCNc2ccnc3cc(Cl)ccc23)Cc2ccco2)n1 | – | 7.73 | 5.14 | 8.26 | 7.68 | 22.6 | 6.37 | 3.01 | 10.3 | 2.18 | 1.92 | 1.98 | 2.38 | 2.5 | – | 2.05 | 3.12 | 1.54 | 1.65 | 4.49
7 | Nc1ncnc2c1ncn2C1CC(OCc2ccccc2[N+](=O)[O-])C(CO)O1 (centres undefined) | – | > 50 | 31.6 | > 50 | > 50 | > 50 | > 50 | – | > 50 | – | – | – | – | – | – | – | – | – | – | 34.6
8 | O=[N+]([O-])c1cccc(C2CC(c3ccccc3)=Nc3ccccc3S2)c1 (centres undefined) | > 100 | – | 84.7 | 35.6 | 61.8 | 28.1 | 34.2 | 29.6 | 12 | – | 16.1 | 17.9 | 17.4 | 3.03 | 21.8 | 26.5 | 13.9 | 15.9 | 3.4 | > 100
9 | CN1c2ccccc2N(C(=O)c2ccccc2)C(CC(=O)O)c2cccn21 (centres undefined) | > 100 | > 100 | > 100 | > 100 | > 100 | > 100 | > 100 | > 100 | > 100 | – | – | – | – | – | – | – | – | – | – | –
10 | COc1ccc(/C(C#N)=C2C=C/C(=N/O)c3ccccc3\2)cc1 | 26.1 | – | 0.688 | 17.6 | 14.4 | 16.5 | 20 | 1.26 | 14.4 | – | 0.523 | 0.403 | 1.22 | 0.262 | 0.608 | 0.254 | 2.96 | 0.323 | 0.133 | 5.06
11 | CCN1CCN(C(=O)[C@]23CCC(C)(C)C[C@@H]2C2=CC[C@@H]4[C@@]5(C)C/C(=C/c6ccncc6)C(=O)C(C)(C)[C@@H]5CC[C@@]4(C)[C@]2(C)CC3)CC1 | 2.95 | 3.01 | 4.4 | 3.13 | 3.16 | 3.15 | 3.03 | 2.99 | 3.14 | 1.49 | 1.6 | 1.63 | 1.62 | 1.48 | 1.45 | 1.04 | 1.66 | 1.6 | – | –
12 | CC(=O)OC1COC(n2c(=S)n(-c3ccccc3)c(=O)c3ccccc32)C(OC(C)=O)C1OC(C)=O (centres undefined) | > 100 | > 100 | > 100 | > 100 | > 100 | > 100 | > 100 | > 100 | > 100 | – | – | – | – | – | – | – | – | – | – | –
13 | O=C1NC(=NCCCc2ccccc2)S/C1=C\c1ccc2ncccc2c1 | > 18.2 | – | 16 | 14.1 | 15.8 | > 25 | 21.1 | 9.8 | > 21.5 | – | 5.49 | 6.06 | 6.51 | 6.37 | 5.09 | 5.49 | 8.09 | 4.63 | 3.73 | 16.5
14 | c1ccc2c3c([nH]c2c1)C(c1ccc(C2NCCc4c2[nH]c2ccccc42)cc1)NCC3 (centres undefined) | 4.03 | 3.39 | 2.81 | 2.83 | 3.36 | 4.17 | 3.18 | 3.13 | 0.344 | 1.42 | 1.34 | 1.65 | 1.68 | 0.185 | 1.66 | 1.13 | 1.81 | 1.7 | – | –
15 | CC[n+]1c(/C=C/C=C2\N(C)c3ccccc3C2(C)C)sc2ccccc21 | – | 12.8 | 12.1 | 10.7 | 7.09 | 11.7 | 7.97 | 7.33 | 8.27 | 4.39 | 4.68 | 2.75 | 4.17 | 4.19 | – | 5.16 | 4.82 | 3.79 | 3.32 | 9.32
